Reference: ChEMBL document CHEMBL4428134, “Discovery of AZD2716: A Novel Secreted Phospholipase A2 (sPLA2) Inhibitor for the Treatment of Coronary Artery Disease” (ACS Med Chem Lett, 2016)
Converted amounts (≈) assume the structure as drawn. The source made the active and inactive calls. No cut-off for these calls is given here.

What was measured:
Cytochrome P450 3A4 = Cytochrome P450 3A4 (Homo sapiens, UniProt P08684); assay: Inhibition of human recombinant CYP3A4; type: ADME
[1] = Volume of distribution at steady state in beagle dog at 1 umol/kg, iv or 2 umol/kg, po; type: ADME, organism-based, Canis lupus familiaris; conditions: in vivo
[2] = biological target: T1, Phospholipase A2, membrane associated (Homo sapiens, UniProt P14555); assay: (§1) Inhibition of recombinant sPLA2-2A (unknown origin) using 1-palmitoyl-2-oleoyl-sn-glycero-3-phosphocholine as substrate preincubated for 10 mins followed by substrate addition measured after 60 mins by colorimetric method
T1 sequence (P14555 whole entry): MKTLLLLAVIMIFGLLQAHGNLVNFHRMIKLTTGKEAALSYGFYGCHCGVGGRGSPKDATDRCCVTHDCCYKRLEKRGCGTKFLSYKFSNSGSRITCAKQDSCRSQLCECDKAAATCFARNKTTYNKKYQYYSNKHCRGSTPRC

Cytochrome P450 2C8 = Cytochrome P450 2C8 (Homo sapiens, UniProt P10632); assay: Inhibition of human recombinant CYP2C8; type: ADME
[3] = biological target: Voltage-gated inwardly rectifying potassium channel KCNH2 (Homo sapiens, UniProt Q12809); assay: Inhibition of human ERG expressed in CHO cells by patch clamp assay; type: cell-based
[4] = Oral bioavailability in Sprague-Dawley rat at 4 umol/kg; type: ADME, organism-based; conditions: in vivo
[5] = Inhibition of human IKs channel expressed in CHO cells by patch clamp assay; type: cell-based
[6] = biological target: T2, Secretory phospholipase A2 (Homo sapiens) (UniProt Q5R387+Q9NZK7+P14555+Q9BZM2+Q9UNK4+P39877+O15496+P04054+Q9NZ20+Q9BZM1+Q9BX93); assay: Inhibition of sPLA2 in human plasma using 1-Hexadecanoyl-2-(1-pyrenedecanoyl)-sn-glycero-3-phosphomethanol as substrate preincubated for 10 mins followed by substrate addition measured after 90 mins by fluorescence assay; type: cell-free
[7] = biological target: Voltage-dependent L-type calcium channel subunit alpha-1C (Homo sapiens, UniProt Q13936); assay: Inhibition of human Cav1.2 expressed in CHO cells by patch clamp assay; type: cell-based
Chain of Voltage-dependent L-type calcium channel subunit alpha-1C (Q13936 whole entry): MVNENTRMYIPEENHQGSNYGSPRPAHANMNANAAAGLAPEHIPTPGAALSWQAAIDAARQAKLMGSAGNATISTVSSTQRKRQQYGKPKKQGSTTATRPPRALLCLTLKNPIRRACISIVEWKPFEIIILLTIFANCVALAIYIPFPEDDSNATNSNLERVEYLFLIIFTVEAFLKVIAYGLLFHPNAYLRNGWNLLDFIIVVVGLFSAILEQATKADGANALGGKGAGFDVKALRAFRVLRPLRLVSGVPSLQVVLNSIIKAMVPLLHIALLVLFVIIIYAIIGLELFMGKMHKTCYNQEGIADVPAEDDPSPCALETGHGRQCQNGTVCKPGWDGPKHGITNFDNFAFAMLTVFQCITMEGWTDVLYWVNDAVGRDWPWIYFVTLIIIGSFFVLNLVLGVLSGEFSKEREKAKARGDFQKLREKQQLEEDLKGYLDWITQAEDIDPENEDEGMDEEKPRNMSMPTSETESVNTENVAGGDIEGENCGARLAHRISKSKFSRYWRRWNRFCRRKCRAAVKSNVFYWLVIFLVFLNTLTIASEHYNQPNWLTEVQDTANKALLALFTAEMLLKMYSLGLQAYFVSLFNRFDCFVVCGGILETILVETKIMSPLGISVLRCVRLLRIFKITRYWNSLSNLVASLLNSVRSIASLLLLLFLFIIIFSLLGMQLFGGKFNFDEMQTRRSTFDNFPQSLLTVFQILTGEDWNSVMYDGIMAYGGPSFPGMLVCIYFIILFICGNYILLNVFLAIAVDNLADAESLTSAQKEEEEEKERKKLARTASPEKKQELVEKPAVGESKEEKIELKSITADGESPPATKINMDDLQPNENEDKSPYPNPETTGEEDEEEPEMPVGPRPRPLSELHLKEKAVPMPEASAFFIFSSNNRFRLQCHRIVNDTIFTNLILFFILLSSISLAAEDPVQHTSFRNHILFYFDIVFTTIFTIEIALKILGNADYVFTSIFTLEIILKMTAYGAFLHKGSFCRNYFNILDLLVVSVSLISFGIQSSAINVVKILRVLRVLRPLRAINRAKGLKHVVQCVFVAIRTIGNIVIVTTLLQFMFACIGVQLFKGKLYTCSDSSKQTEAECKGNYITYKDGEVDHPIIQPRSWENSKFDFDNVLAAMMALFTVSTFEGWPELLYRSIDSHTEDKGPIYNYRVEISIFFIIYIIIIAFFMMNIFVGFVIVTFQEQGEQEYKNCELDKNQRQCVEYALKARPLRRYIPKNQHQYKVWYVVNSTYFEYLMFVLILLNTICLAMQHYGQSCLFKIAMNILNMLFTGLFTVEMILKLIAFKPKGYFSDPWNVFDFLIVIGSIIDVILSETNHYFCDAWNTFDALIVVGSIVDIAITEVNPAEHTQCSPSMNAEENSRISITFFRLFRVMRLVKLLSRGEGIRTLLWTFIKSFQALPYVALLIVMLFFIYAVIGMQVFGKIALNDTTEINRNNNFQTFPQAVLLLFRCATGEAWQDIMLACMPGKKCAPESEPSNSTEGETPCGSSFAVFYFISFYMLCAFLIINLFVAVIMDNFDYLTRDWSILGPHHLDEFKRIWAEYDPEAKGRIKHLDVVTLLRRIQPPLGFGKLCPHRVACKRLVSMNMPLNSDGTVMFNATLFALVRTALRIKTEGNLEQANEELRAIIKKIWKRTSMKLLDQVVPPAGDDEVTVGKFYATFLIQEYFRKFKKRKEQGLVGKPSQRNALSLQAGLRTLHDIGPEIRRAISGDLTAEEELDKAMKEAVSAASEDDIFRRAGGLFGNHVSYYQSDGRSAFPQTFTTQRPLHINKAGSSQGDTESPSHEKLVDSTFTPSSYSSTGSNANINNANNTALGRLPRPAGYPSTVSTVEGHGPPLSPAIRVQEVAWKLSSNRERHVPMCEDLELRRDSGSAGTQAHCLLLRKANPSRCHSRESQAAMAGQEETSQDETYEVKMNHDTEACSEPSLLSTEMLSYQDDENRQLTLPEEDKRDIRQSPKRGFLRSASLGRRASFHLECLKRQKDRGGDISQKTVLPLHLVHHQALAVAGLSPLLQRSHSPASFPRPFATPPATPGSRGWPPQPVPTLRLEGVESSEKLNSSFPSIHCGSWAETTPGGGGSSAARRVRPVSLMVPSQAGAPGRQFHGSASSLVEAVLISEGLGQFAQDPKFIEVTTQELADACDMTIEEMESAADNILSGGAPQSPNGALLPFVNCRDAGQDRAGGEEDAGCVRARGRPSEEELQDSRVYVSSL

[8] = biological target: Voltage-dependent T-type calcium channel subunit alpha-1H (Homo sapiens, UniProt O95180); assay: Inhibition of human Cav3.2 expressed in CHO cells by patch clamp assay; type: cell-based
Cytochrome P450 2C19 = Cytochrome P450 2C19 (Homo sapiens, UniProt P33261); assay: Inhibition of human recombinant CYP2C19; type: ADME
Chain of Cytochrome P450 2C19 (P33261 whole entry): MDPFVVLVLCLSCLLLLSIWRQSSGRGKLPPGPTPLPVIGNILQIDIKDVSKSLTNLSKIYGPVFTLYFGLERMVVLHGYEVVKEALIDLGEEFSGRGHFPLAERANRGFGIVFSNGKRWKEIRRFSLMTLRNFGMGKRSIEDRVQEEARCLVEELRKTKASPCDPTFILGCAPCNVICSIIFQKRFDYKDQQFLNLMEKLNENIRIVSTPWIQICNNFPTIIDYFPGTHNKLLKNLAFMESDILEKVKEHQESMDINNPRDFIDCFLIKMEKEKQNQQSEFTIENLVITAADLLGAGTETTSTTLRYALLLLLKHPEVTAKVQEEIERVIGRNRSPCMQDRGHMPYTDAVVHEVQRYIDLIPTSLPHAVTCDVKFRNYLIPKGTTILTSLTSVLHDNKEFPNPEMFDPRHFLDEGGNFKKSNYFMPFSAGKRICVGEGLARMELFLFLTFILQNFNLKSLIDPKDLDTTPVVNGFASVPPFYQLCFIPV

[9] = Intrinsic clearance in human hepatocytes at 1 uM assessed per million cells measured up to 60 mins; type: ADME, cell-based, Hepatocyte; conditions: 1 h
[10] = biological target: T3, Group 10 secretory phospholipase A2 (Homo sapiens, UniProt O15496); assay: Inhibition of recombinant sPLA2-10 (unknown origin) using 1-palmitoyl-2-oleoyl-sn-glycero-3-phosphocholine as substrate preincubated for 10 mins followed by substrate addition measured after 60 mins by colorimetric method
T3 sequence (O15496 whole entry): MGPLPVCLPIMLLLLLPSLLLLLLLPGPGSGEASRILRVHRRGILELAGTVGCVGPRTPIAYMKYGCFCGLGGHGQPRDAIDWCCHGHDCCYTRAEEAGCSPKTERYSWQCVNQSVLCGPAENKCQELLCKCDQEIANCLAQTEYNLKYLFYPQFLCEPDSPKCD

[11] = Solubility of compound in pH 7.4 DMSO/HBSS after 24 hrs by LC-UV/MS analysis; type: physicochemical
[12] = Apparent permeability from apical to basolateral side in human Caco2 cells at pH 6.5; type: ADME, cell-based; conditions: caco-2, pH 6.5
Cytochrome P450 2C9 = Cytochrome P450 2C9 (Homo sapiens, UniProt P11712); assay: Inhibition of human recombinant CYP2C9; type: ADME
[13] = Inhibition of recombinant sPLA2-5 (unknown origin) using 1-palmitoyl-2-oleoyl-sn-glycero-3-phosphocholine as substrate preincubated for 10 mins followed by substrate addition measured after 60 mins by colorimetric method; set-up: species or system Homo sapiens
[14] = Oral bioavailability in beagle dog at 2 umol/kg; type: ADME, organism-based, Canis lupus familiaris; conditions: in vivo
[15] = biological target: A-type voltage-gated potassium channel KCND3 (Homo sapiens, UniProt Q9UK17); assay: Inhibition of human Kv4.3 expressed in CHO cells by patch clamp assay; type: cell-based
Cytochrome P450 2D6 = Cytochrome P450 2D6 (Homo sapiens, UniProt P10635); assay: Inhibition of human recombinant CYP2D6; type: ADME
Chain of Cytochrome P450 2D6 (P10635 whole entry): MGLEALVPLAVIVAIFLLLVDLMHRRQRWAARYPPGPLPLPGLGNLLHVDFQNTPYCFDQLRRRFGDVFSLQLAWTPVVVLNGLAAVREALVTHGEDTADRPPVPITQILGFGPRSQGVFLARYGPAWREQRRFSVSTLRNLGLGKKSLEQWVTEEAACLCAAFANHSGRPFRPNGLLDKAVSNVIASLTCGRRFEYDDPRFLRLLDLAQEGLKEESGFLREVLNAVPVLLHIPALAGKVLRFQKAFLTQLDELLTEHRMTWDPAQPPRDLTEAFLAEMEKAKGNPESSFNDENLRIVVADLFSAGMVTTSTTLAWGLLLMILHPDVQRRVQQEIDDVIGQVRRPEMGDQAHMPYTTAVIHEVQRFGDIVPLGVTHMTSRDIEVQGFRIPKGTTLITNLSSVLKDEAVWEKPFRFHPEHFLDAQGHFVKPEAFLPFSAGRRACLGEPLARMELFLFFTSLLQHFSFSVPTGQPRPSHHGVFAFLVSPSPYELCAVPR

[16] = Volume of distribution at steady state in Sprague-Dawley rat at 2 umol/kg, iv or 4 umol/kg, po; type: ADME, organism-based; conditions: in vivo
Cytochrome P450 1A2 = Cytochrome P450 1A2 (Homo sapiens, UniProt P05177); assay: Inhibition of human recombinant CYP1A2; type: ADME
Chain of Cytochrome P450 1A2 (P05177 whole entry): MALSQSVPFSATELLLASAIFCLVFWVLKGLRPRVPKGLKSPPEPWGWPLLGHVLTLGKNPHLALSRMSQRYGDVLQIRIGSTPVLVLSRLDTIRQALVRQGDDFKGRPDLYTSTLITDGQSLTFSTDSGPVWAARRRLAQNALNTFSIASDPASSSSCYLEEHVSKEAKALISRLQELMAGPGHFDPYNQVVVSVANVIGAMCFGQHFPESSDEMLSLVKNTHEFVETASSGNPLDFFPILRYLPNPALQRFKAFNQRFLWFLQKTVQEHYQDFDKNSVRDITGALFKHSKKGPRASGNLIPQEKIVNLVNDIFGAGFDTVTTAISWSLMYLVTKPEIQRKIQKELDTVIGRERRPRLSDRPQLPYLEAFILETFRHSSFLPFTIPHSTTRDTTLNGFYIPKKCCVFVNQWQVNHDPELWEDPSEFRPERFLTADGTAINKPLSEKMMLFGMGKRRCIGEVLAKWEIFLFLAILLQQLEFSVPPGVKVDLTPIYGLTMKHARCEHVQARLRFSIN

[17] = biological target: Sodium channel protein type 5 subunit alpha (Homo sapiens, UniProt Q14524); assay: Inhibition of human Nav1.5 expressed in CHO cells by patch clamp assay; type: cell-based
[18] = biological target: Solute carrier organic anion transporter family member 1B1 (Homo sapiens, UniProt Q9Y6L6); assay: Inhibition of human OATP1B1 expressed in HEK293 cells assessed as reduction in […] uptake at 25 uM; type: cell-based; conditions: hek293, 25 µM
Chain of Solute carrier organic anion transporter family member 1B1 (Q9Y6L6 whole entry): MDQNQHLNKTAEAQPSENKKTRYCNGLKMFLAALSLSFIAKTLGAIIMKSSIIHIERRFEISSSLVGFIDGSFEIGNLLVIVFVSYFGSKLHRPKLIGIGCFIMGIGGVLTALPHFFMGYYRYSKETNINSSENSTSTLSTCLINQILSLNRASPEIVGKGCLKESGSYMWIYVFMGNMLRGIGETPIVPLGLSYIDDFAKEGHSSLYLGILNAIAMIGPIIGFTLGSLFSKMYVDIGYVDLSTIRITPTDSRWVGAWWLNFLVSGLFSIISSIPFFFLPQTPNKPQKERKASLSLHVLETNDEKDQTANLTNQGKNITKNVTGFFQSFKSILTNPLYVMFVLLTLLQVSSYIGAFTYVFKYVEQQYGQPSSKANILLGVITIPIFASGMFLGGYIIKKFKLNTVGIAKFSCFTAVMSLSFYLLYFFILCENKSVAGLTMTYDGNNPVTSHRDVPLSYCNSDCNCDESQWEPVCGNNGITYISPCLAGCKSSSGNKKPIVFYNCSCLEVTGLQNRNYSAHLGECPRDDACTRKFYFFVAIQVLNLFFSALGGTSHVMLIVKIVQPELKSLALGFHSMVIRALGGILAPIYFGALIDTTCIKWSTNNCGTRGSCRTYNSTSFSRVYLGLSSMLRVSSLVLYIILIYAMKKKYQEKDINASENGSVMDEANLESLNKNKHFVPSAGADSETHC

[19] = biological target: Secretory phospholipase A2; assay: Inhibition of sPLA2 in atherosclerotic plaque from coronary artery disease patient; type: protein assay, Homo sapiens
[20] = AUC (0 to infinity) in Sprague-Dawley rat at 8 umol/kg, po; type: ADME; set-up: dose 8 umol/kg, time infinity, route oral; conditions: in vivo
[21] = Volume of distribution at steady state in Sprague-Dawley rat at 2 umol/kg, iv or 8 umol/kg, po; type: ADME, organism-based; conditions: in vivo
HepG2 = assay: Inhibition of sPLA2-2A production in human HepG2 cells; type: functional, cell-based
[22] = AUC (0 to infinity) in mouse at 50 umol/kg, po; type: ADME; set-up: dose 50 umol/kg, route oral, time infinity; conditions: in vivo
Cynomolgus monkey = assay: In vivo inhibition of sPLA2 in po dosed cynomolgus monkey plasma measured up to 24 hrs; type: functional, Macaca fascicularis
[23] = Volume of distribution at steady state in cynomolgus monkey at 5 umol/kg, iv or 15.8 umol/kg, po; type: ADME, organism-based, Macaca fascicularis; conditions: in vivo
[24] = AUC (0 to infinity) in beagle dog at 3 umol/kg, po; type: ADME, Canis lupus familiaris; set-up: dose 3 umol/kg, route oral, time infinity; conditions: in vivo
Macaca fascicularis = species on record: Macaca fascicularis; assay: Inhibition of sPLA2 in cynomolgus monkey plasma using 1-Hexadecanoyl-2-(1-pyrenedecanoyl)-sn-glycero-3-phosphomethanol as substrate preincubated for 10 mins followed by substrate addition measured after 90 mins by fluorescence assay; type: cell-free
[25] = AUC (0 to infinity) in cynomolgus monkey at 15.8 umol/kg, po; type: ADME, Macaca fascicularis; set-up: dose 15.8 umol/kg, route oral, time infinity; conditions: in vivo
[26] = Volume of distribution at steady state in beagle dog at 1 umol/kg, iv or 3 umol/kg, po; type: ADME, organism-based, Canis lupus familiaris; conditions: in vivo
[27] = Volume of distribution at steady state in mouse at 10 umol/kg, iv or 50 umol/kg, po; type: ADME, organism-based; conditions: in vivo
[28] = Oral bioavailability in mouse at 50 umol/kg; type: ADME, organism-based; conditions: in vivo
[29] = Oral bioavailability in beagle dog at 3 umol/kg; type: ADME, organism-based, Canis lupus familiaris; conditions: in vivo
[30] = Oral bioavailability in cynomolgus monkey at 15.8 umol/kg; type: ADME, organism-based, Macaca fascicularis; conditions: in vivo
[31] = biological target: Secretory phospholipase A2; assay: Inhibition of sPLA2 in human HepG2 cells; type: cell-based
[32] = Oral bioavailability in Sprague-Dawley rat at 8 umol/kg; type: ADME, organism-based; conditions: in vivo
[33] = biological target: Phospholipase A2, membrane associated (Homo sapiens) (UniProt P14555); assay: as §1
Homo sapiens = species on record: Homo sapiens; assay: Inhibition of recombinant sPLA2-5 (unknown origin) at 25 uM using 1-palmitoyl-2-oleoyl-sn-glycero-3-phosphocholine as substrate preincubated for 10 mins followed by substrate addition measured after 60 mins by colorimetric method
[34] = Unbound fraction in human plasma; type: ADME, cell-free
[35] = biological target: T2, Secretory phospholipase A2 (Homo sapiens); assay: Inhibition of sPLA2 in human plasma at 25 uM using 1-Hexadecanoyl-2-(1-pyrenedecanoyl)-sn-glycero-3-phosphomethanol as substrate preincubated for 10 mins followed by substrate addition measured after 90 mins by fluorescence assay; type: cell-free

Chain of Cytochrome P450 3A4 (P08684 whole entry): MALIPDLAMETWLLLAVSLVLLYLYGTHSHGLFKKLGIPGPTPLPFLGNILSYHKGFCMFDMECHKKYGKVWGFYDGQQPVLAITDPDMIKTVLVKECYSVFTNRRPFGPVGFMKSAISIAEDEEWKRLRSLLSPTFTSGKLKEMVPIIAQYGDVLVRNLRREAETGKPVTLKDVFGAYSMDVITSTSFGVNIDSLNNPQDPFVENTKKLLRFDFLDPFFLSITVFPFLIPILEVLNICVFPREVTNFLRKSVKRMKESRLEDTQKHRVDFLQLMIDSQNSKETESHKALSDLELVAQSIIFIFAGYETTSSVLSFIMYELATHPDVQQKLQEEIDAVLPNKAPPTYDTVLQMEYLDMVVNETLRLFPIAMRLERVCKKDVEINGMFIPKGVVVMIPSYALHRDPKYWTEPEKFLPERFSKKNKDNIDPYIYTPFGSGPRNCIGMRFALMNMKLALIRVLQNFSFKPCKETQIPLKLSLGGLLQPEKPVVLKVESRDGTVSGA

## NC(=O)c1ccc(Cc2ccccc2)cc1-c1cccc(CCC(=O)O)c1
Cytochrome P450 3A4
  IC50: > 20000 nM
[1]
  Vdss: 0.26 L/kg
[2]
  IC50: 12 nM
Cytochrome P450 2C8
  IC50: > 20000 nM
[3]
  IC50: > 33300 nM
[4]
  F: 81%
[5]
  IC50: > 33300 nM
[6]
  fIC50: 0.007 µM
[7]
  IC50: > 33300 nM
[8]
  IC50: > 33300 nM
Cytochrome P450 2C19
  IC50: > 20000 nM
[9]
  CLint: 5.2 µL/min/1e6 cells
[10]
  IC50: 280 nM
[11]
  solubility kinetic at 24 h: 98 µM (≈ 35.2 µg/mL)
[12]
  Papp: 40.1 ×10⁻⁶ cm/s
Cytochrome P450 2C9
  IC50: > 20000 nM
[13]
  IC50: 360 nM
[14]
  F: 82%
[15]
  IC50: > 33300 nM
Cytochrome P450 2D6
  IC50: > 20000 nM
[16]
  Vdss: 0.22 L/kg
Cytochrome P450 1A2
  IC50: > 20000 nM
[17]
  IC50: > 33300 nM

## CC(Cc1cccc(-c2cc(Cc3ccccc3)ccc2C(N)=O)c1)C(=O)O (centres undefined)
[18]
  inhibition (INH): Not Active
[2]
  IC50: 11 nM
[6]
  fIC50: 0.001 µM
[9]
  CLint: 9.6 µL/min/1e6 cells
[10]
  IC50: 750 nM
[13]
  IC50: 70 nM

## NC(=O)c1ccc(Cc2ccccc2)cc1-c1cccc(CC(=O)O)c1
[2]
  IC50: 70 nM
[6]
  fIC50: 0.04 µM
[10]
  IC50: 1100 nM
[13]
  IC50: 1400 nM

## CCC(Cc1cccc(-c2cc(Cc3ccccc3)ccc2C(N)=O)c1)C(=O)O (centres undefined)
[2]
  IC50: 21 nM
[6]
  fIC50: 0.0008 µM
[9]
  CLint: 25 µL/min/1e6 cells
[10]
  IC50: 430 nM
[13]
  IC50: 70 nM

## NC(=O)c1ccc(Cc2ccccc2)cc1-c1cccc(OCC(=O)O)c1
[2]
  IC50: 190 nM
[10]
  IC50: 3700 nM

## C[C@H](Cc1cccc(-c2cc(Cc3ccccc3)ccc2C(N)=O)c1)C(=O)O
[19]
  IC50: 56 nM
[20]
  AUC(0-inf): 70 µM·h
[18]
  inhibition (INH): Not Active
[21]
  Vdss: 0.21 L/kg
[2]
  IC50: 10 nM
HepG2
  IC50: 176 nM
[6]
  fIC50: 0.0001 µM
[22]
  AUC(0-inf): 69.7 µM·h
Cynomolgus monkey
  fIC80: 13 nM
Cynomolgus monkey; Macaca fascicularis
  inhibition: Dose-dependent effect
[9]
  CLint: 12 µL/min/1e6 cells
[10]
  IC50: 400 nM
[23]
  Vdss: 1.1 L/kg
[24]
  AUC(0-inf): 284 µM·h
Macaca fascicularis
  fIC50: 1 nM
[25]
  AUC(0-inf): 71.3 µM·h
[13]
  IC50: 40 nM
[26]
  Vdss: 0.15 L/kg
[27]
  Vdss: 2.8 L/kg
[28]
  F: 76.3%
[29]
  F: 91%
[30]
  F: 81%
[31]
  IC50: < 14 nM
[32]
  F: 84%

## NC(=O)c1ccc(Cc2ccccc2)cc1
[2]
  IC50: 24000 nM
[33]
  inhibition: Dose-dependent effect
[6]
  fIC50: 0.9 µM
[10]
  IC50: 2200 nM
Homo sapiens
  inhibition: inactive
[34]
  Fu: 1.8%

## C[C@@H](Cc1cccc(-c2cc(Cc3ccccc3)ccc2C(N)=O)c1)C(=O)O
[2]
  IC50: 38 nM
[9]
  CLint: 9.3 µL/min/1e6 cells
[10]
  IC50: 3800 nM
[13]
  IC50: 1200 nM

## NC(=O)c1ccc(Cc2ccccc2)cc1-c1cccc(C(=O)O)c1
[2]
  IC50: 910 nM
[13]
  IC50: > 10000 nM
[35]
  inhibition: inactive

## CCc1c(C(=O)C(N)=O)c2c(OCC(=O)O)cccc2n1Cc1ccccc1 [VARESPLADIB]
[6]
  fIC50: 0.008 µM
[13]
  IC50: 120 nM
[34]
  Fu: 12.5%

## NC(=O)c1ccc(Cc2ccccc2)cc1-c1cccc(CCCC(=O)O)c1
[2]
  IC50: 110 nM
[6]
  fIC50: 0.03 µM
[10]
  IC50: 5400 nM
[13]
  IC50: 4100 nM
